Converted amounts (≈) assume the structure as drawn. One block for each compound: values may come before it.
Columns and labels:
[1] = system: herpes simplex virus type 1 (HSV-1) strain HF; experiment: Virus induced cytopathic effects (CPE) inhibition assay in Vero cells (MTS); format: cell-based; conditions: Human alphaherpesvirus 1, Vero, read-out: Ic50 against HSV-1 virus
Text: (§1) A virus induced cytopathic effects (CPE) inhibition assay procedure using Promega's cell titer aqueous one solution (MTS, metabolic dye similar to XTT) is employed to evaluate compounds for antiviral activity against herpes simplex virus type 1 (HSV-1) strain HF in Vero cells. Vero cells are pregrown in 96 well tissue culture plates using Dulbecco's modified eagle's media (DMEM) supplemented with 10% heat inactivated fetal bovine serum (FBS), L-glutamine, penicillin and streptomycin. Antiviral assays are designed to test six half log dilution of each compound in triplicate against the challenge virus in microtiter plate wells containing host cell monolayers. To each of the replicate cell cultures is added 50 uL of the test drug solution and 50 uL of virus suspension. Cell control containing medium alone, virus infected controls containing medium and virus, drug cytotoxicity controls containing medium and each drug concentration, reagent controls containing culture medium only (no cells), and drug calorimetric controls containing drug and medium (no cells) are run simultaneously with the test samples. The plates are incubated at 37° C. in a humidified atmosphere containing 5% CO2 until maximum CPE is observed in the untreated virus control cultures (day 5). CPE inhibition is determined by the dye (MTS) uptake procedure. […]

[2] = Drug cytotoxicity in Vero cells (MTS), HSV-1 assay; format: cell-based; conditions: African green monkey
Text: as §1

IIIB strain of HIV [3] = experiment: Virus attachment assay (HeLa CD4 LTR β-gal cells); format: cell-based; conditions: Human immunodeficiency virus 1, 1 h adsorption
Description: (§2) This assay is designed to detect compounds that interact with the cell and block virus attachment, and/or compounds that interact with the forming attachment/fusion complex. The attachment assay is performed with HeLa CD4 LTR β-gal cells. HeLa CD4 LTR β-gal cells are routinely cultured with the required selection antibiotics. Twenty-four hours prior to initiation of the assay the cells are trypsinized, counted, and 1×10^4 cells placed in a 0.2 cm well in media without selection antibiotics. At 24 h media is removed and compound in media placed on the cells and incubated for 15 min at 37° C. […] At the end of the incubation, the wells are washed 3 times with media and the culture continued for 40 to 48 h. At termination of the assay, media is removed and β-galactosidase enzyme expression determined by chemiluminescence per manufacturer instructions (Tropix Gal-screen™, Bedford Mass.) by a single step chemiluminescent method using a single solution to lyse the cells and detect β-galactosidase enzyme activity. Compound toxicity is monitored on a sister plate by XTT dye reduction. All determinations are performed in triplicate with serial ½ Log10 dilution of the test materials.

HeLa CD4 LTR β-gal cells [4] = experiment: Compound toxicity (XTT, sister plate) in the virus attachment assay; format: cell-based
Description: as §2

HeLa CD4 LTR β-gal cells [5] = experiment: Compound toxicity (XTT, sister plate) in the fusion assay; format: cell-based
Description: The fusion assay assesses the ability of compounds to block cell-to-cell fusion mediated by HIV-1 Env and CD4 expressed on separate cells. This assay is sensitive to inhibitors of both the gp120/CD4 interaction and inhibitors of the X4 coreceptor. First, 5×10^3 HeLa CD4 LTR β-gal cells are placed in microtiter wells and incubated overnight. The following day the media is removed and the HeLa CD4 LTR β-gal cells are incubated for 1 h at 37° C. in fresh media with test compound. Following the incubation 5×10^3 HL2/3 cells are added and the incubation continued for 40 to 48 h. At 40 to 48 h β-galactosidase enzyme expression is detected by chemiluminescence (Tropix Gal-screen™, Tropix, Bedford, Mass.). Compound toxicity is monitored on a sister plate using XTT dye reduction. All determinations are performed in triplicate with serial ½ Log10 dilution of the test materials.

IIIB strain of HIV [6] = conditions: virus adsorption interval of 1 h; cited from earlier work
HIV-1 (RF) = format: cell-based; conditions: 6 days, MTS, control, row printed in μM, read-out: Ic50, activity against HIV-1 in CEM-SS cells
Description: (§3) CEM-SS cells (obtained from the AIDS Research and Reference Reagent Repository, Bethesda, Md.) are passaged in T-75 flasks in tissue culture media (RP 1640 medium (no phenol red) with 10% Fetal Bovine Serum (heat inactivated), 2 mM L-glutamine, 100 U/mL penicillin, 100 μg/mL streptomycin, and 10 μg/mL gentamycin). On the day preceding the assay, the cells are split 1:2. On the day of assay the cells are collected by centrifugation, washed twice with tissue culture medium and resuspended in fresh tissue culture medium. Total cell and viability counting is performed using a hemacytometer. Cell viability prior to the assay is determined by Trypan Blue dye exclusion and must exceed 95%. A pretitered aliquot of HIV-1 RF (AIDS Research and Reference Reagent Repository, Bethesda, Md.), CEM-SS cells and compound are placed into microtiter plates. Each plate contains cell control wells (cells only), virus control wells (cell plus virus), drug toxicity control wells (cells plus drugs only), drug calorimetric control wells (drugs only) as well as experimental wells (drug plus cells plus virus) . Cultures are incubated for 6 days at 37° C., 5% CO2 and antiviral activity and compound toxicity determined by MTS staining.

CEM-SS cells = system: CEM-SS cells
Description: as §3

[7] = system: vaginal/cervical epithelial and other cells; conditions: concentrations as low as; cited from earlier work

Compound: Nc1nc2c(ncn2COCCO)c(=O)[nH]1 [Acyclovir]
IC50 [1]: 2700 nM
CC50 at 5 day [2]: > 10 µg/mL

IC50 (IIIB strain of HIV [3]): 0.32 µg/mL (≈ 0.354 µM)
Compound: COc1cc(-c2ccc(/N=N/c3ccc4c(S(=O)(=O)O)cc(S(=O)(=O)O)c(N)c4c3O)c(OC)c2)ccc1/N=N/c1ccc2c(S(=O)(=O)O)cc(S(=O)(=O)O)c(N)c2c1O [Chicago Sky Blue]
Attachment Assay TC50 (HeLa CD4 LTR β-gal cells [4]): >10 µg/mL
Fusion Assay TC50 (HeLa CD4 LTR β-gal cells [5]): >10 µg/mL

IC50 (HIV-1 (RF)): 0.005 µM
Compound: Cc1cn([C@H]2C[C@H](N=[N+]=[N-])[C@@H](CO)O2)c(=O)[nH]c1=O [AZT]
Activity in the virus attachment assay (in words) (IIIB strain of HIV [6]): not active
CC50 (CEM-SS cells): > 1000 nM

Compound: Nonoxynol-9
Concentration that can injure vaginal/cervical epithelial and other cells [7]: about 0.0005%

— US20020102230A1, “Method for inactivating pathogens” (priority 2000, published 2002)
